Tests used:
[1] = tested on: Aurora-B; assay: Western blot, Aurora-B expression; assay type: cell-based, human; settings: DU-145, increasing concentrations (0.25-1.5 μM), 24 h
Procedure: Briefly, DU-145 cells were seeded (1.0 × 10^6 cells/well) into six-well plates and maintained to attach at 37°C in 5% CO2. After 24 h, cells were treated with 0.25, 0.50, 1.0, and 1.5 μM of complex (2). DMSO (0.1% v/v) was used as the vehicle control. After 24 h of incubation, cells were collected and suspended in Western blotting lysis buffer (20 mM Tris-HCl pH 7.4, 150 mM NaCl, 1 mM EDTA, and phosphatase and protease inhibitors). Cell lysates were centrifuged at 11,000g for 15 min at 4 °C, and supernatant was collected. Protein concentrations were quantified using the BCA Protein Assay Kit® (Thermo Fischer Scientific), according to the manufacturer’s instructions. For immunoblotting, equal amounts (30 μg) of total protein were electrophoresed in a NuPAGE® 4-12% Bis-Tris gel and transferred to an Invitrolon™ polyvinylidene difluoride (PVDF) membrane (Novex®, Thermo Fischer Scientific) at 100 V for 1 h. PVDF-membrane was washed two times (5 min each) with Tris-buffered saline plus Tween 20 (TBST, Sigma-Aldrich) and blocked in 5% non-fat milk in phosphate buffered saline with Tween®20 (PBST, Sigma-Aldrich) for 1 h at room temperature. […]

[2] = tested on: DU-145 cells; assay: Gene expression analysis by qPCR array (Human Cancer Drug Targets); assay type: cell-based; settings: DU-145, 1.0 µM, 12 h, mRNA, ΔΔCt vs vehicle
Procedure: Briefly, DU-145 cells were seeded (1.0 × 10^6 cells/well) into six-well plates and maintained to attach at 37°C in 5% CO2. After 24 h, the cells were treated with 1.0 μM of the complex (2). DMSO (0.1% v/v) was used as the vehicle control. After 12 h of incubation, total RNA was isolated from the cells using the RNeasy® Mini kit (Qiagen, Germany) according to the manufacturer’s instructions. RNA was quantified by NanoDrop spectrophotometer (ND-2000; Thermo Fischer Scientific). The Agilent 2100 Bioanalyzer and Agilent RNA 6000 Nanochip kits were used to assess the total RNA quality as per manual instruction (Agilent, USA). The Agilent 2100 Expert software (Version B.02.07.SI532) was used with the Eukaryote Total RNA Nano assay on the Agilent 2100 bioanalyzer. No significant differences in RIN values were observed across the samples. Complementary DNA strands were synthesized using the RT^2 First Strand kit (Qiagen, Germany), following the manufacturer’s instructions. Gene expression profiling was performed using the RT^2 Profiler™ PCR Array Human Cancer Drug Targets (PAHS 507Z, Qiagen) by qPCR. The reactions were conducted in the Applied Biosystems 7500 PCR System (Applied Biosystems, USA) thermocycler. The plate was heated to 95°C for 10 min, followed by 40 cycles of 95°C for 15 s and 60°C for 1 min, followed by the dissociation curve. The expression profile of 84 key drug targets genes was analyzed. Fold changes amplification for targeted genes was normalized to the housekeeping genes GAPDH and RPLP0 by the delta–delta cycle threshold method (ΔΔCt), and the cells treated with vehicle control (0.1% of DMSO v/v) was used as calibrator. The threshold cycle values of control wells were all within the ranges recommended by the PCR array user manual. Three independent biological replicates were performed. All experiments were performed in DNase/RNase free conditions. Genes were considered differentially regulated if the difference was ≥1.8-fold, which means that the gene expression in the compound-treated cells was at 1.8-fold that in the negative control-treated cells. Differences were considered significant at p ≤ 0.05. Statistical analysis of two groups was performed automatically according to the GeneGlobe Data Analysis Center (Qiagen, USA; https://geneglobe.qiagen.com/us/analyze).

[3] = tested on: DU-145 cells; assay: Annexin-V/PI staining assay (flow cytometry); assay type: cell-based, human; settings: for population of apoptotic cells: 24 h, control group 5.9%
Procedure: The measurement of cell death was performed by the guidelines of ([35]). Detection of apoptotic/necrotic cells was determined by flow cytometry using the Alexa Fluor® 488 Annexin V/PI (Thermo Fischer Scientific), and the analyses were performed according to the manufacturer’s instructions. […] DMSO (0.1% v/v) was used as the vehicle control. Following 24 h of incubation, the cells were collected with Accutase® (Gibco-Invitrogen®), washed with PBS and resuspended in 200 μl of cold annexin-binding buffer. Next, 10 μl of Alexa Fluor® was added to Annexin V (50 μl/ml) staining buffer, and the mixture was incubated in the dark at 4°C for 15 min. Previously, the analyses, 100 μl of PI (2 μg/ml) was added, and then, the fluorescence was measured by flow cytometry in a FACSCanto flow cytometer (BD Biosciences, USA) using the Diva software. Ten thousand events were evaluated per experiment, and cellular debris was omitted from the analysis.

In the case of `CC(C)=CCC1=C([O-])C(=O)c2ccccc2C1=O.F[P-](F)(F)(F)(F)F.[Ru+2].c1ccc(P(CP(c2ccccc2)c2ccccc2)c2ccccc2)cc1.c1cnc2c(c1)ccc1cccnc12` [complex (2), [Ru(Lap)(dppm)(phen)]PF6], the Aurora-B protein levels [1] is reported as “downregulated”, the “Fold change, AKT1” value [2] is reported as −2.6 fold and the “Fold change, AKT2” value [2] is reported as −2.6 fold. For the same compound, the “Fold change, AURKA” value [2] was -5.3 fold, the “Fold change, AURKB” value [2] was -11.1 fold and the “Fold change, AURKC” value [2] was -3.0 fold. The “Fold change, BCL2” value [2] was -4.1 fold, the “Fold change, BIRC5” value [2] was -6.4 fold and the “Fold change, CDC25A” value [2] was −2.6 fold. The “Fold change, CDK1” value [2] was -4.5 fold, the “Fold change, CDK2” value [2] was −2.7 fold and the “Fold change, CDK4” value [2] was -4.6 fold. The “Fold change, CDK5” value [2] was −3.2 fold, the “Fold change, EGFR” value [2] was −4.1 fold and the “Fold change, ERBB2” value [2] was −2.4 fold. The “Fold change, GSTP1” value [2] was −2.9 fold, the “Fold change, HDAC8” value [2] was −1.8 fold and the “Fold change, IGF1R” value [2] was −2.7 fold. The “Fold change, MDM4” value [2] was 2.8 fold, the “Fold change, MTOR” value [2] was −3.8 fold and the “Fold change, PARP1” value [2] was −2.7 fold. For the same compound, the “Fold change, PARP2” value [2] was −3.0 fold, the “Fold change, PDGFRB” value [2] was −2.0 fold and the “Fold change, PIK3CA” value [2] was −2.7 fold. For the same compound, the “Fold change, PTGS2” value [2] was 2.1 fold, the “Fold change, TOP2A” value [2] was −2.1 fold and the “Fold change, TOP2B” value [2] was −2.8 fold. For the same compound, the “population of apoptotic cells” value ([3]; DU-145, 0.25 μM) was 11.8%, the “population of apoptotic cells” value ([3]; DU-145, 0.5 μM) was 22.7% and the “population of apoptotic cells” value ([3]; DU-145, 1.0 μM) was 41.4%. The “population of apoptotic cells” value ([3]; DU-145, 1.5 μM) was 70.2% and the “fold lower concentration required for the same effect of cisplatin” value ([3]; apoptotic DU-145 cells, vs cisplatin 25 μM) was 100 fold.
